Laboratory results: patent US6528456B2, “Herbicidal 2-pyrazolyl-6-aryloxypyri(mi)dines” (BASF Aktiengesellschaft, priority 1999, dated 2003)

Experiments:
Assay type in all cases: in vivo
[1] = tested on: Ipomoea hederacea; experiment: Pre-emergence test; settings: 3 weeks after treatment
Method: (§1) To evaluate their herbicidal activity, compounds according to the invention are tested using a representative range of plants: IPHOE Ipomoea hederacea The pre-emergence tests involve spraying a liquid formulation of the compound onto the soil in which the seeds of the plant species mentioned above has recently been sown. The soil used in the tests is a prepared horticultural loam. The formulations used in the tests are prepared from solutions of the test compounds in acetone containing 0.4% by weight of an alkylphenol/ethylene oxide condensate available under the trade mark TRITON X-155. These acetone solutions are diluted with water and the resulting formulations applied at dosage levels corresponding to 0.025 kg, 0.100 kg or 0.400 kg of active material per hectare in a volume equivalent to 900 litres per hectare. In these tests untreated sown soil are used as controls. From 2 to 4 weeks after treatment, the tests are terminated and each pot is examined and rated according to the rating system set forth below: [table]

[2] = tested on: Matricaria inodora; experiment: Pre-emergence test; settings: 3 weeks after treatment
Method: as §1, with “MATIN Matricaria inodora” for “IPHOE Ipomoea hederacea”

[3] = tested on: Setaria viridis; experiment: Pre-emergence test; settings: 3 weeks after treatment
Method: as §1, with “SETVI Setaria viridis” for “IPHOE Ipomoea hederacea”

[4] = tested on: Glycine max; experiment: Pre-emergence test; settings: 3 weeks after treatment
Method: To evaluate their herbicidal activity, compounds according to the invention are tested using a representative range of plants:
The pre-emergence tests involve spraying a liquid formulation of the compound onto the soil in which the seeds of the plant species mentioned above has recently been sown.
as §1, with “The” for “To evaluate their herbicidal activity, compounds according to the invention are tested using a representative range of plants: IPHOE Ipomoea hederacea The pre-emergence tests involve spraying a liquid formulation of the compound onto the soil in which the seeds of the plant species mentioned above has recently been sown. The”, “[table]” left out

[5] = tested on: Hordeum vulgare; experiment: Pre-emergence test; settings: 3 weeks after treatment
Method: as §1, with “HORVW Hordeum vulgare” for “IPHOE Ipomoea hederacea”

[6] = tested on: Galium aparine; experiment: Post-emergence test; settings: 2-4 weeks after treatment
Method: (§2) To evaluate their herbicidal activity, compounds according to the invention are tested using a representative range of plants: GALAP Galium aparine [table] […] These acetone solutions are diluted with water and the resulting formulations applied at dosage levels equivalent of about 0.1 to 0. 4 kg per hectare of test compound per pot. After spraying the plants are placed on greenhouse benches and are cared for in the usual manner, commensurate with conventional greenhouse practices. From 2 to 4 weeks after treatment, the seedling plants are examined and rated according to the rating system provided above.

[7] = tested on: Hordeum vulgare; experiment: Post-emergence test; settings: 2-4 weeks after treatment
Method: as §2, with “HORVW Hordeum vulgare” for “GALAP Galium aparine”

[8] = tested on: Zea mays; experiment: Post-emergence test; settings: 2-4 weeks after treatment
Method: as §2, with “ZEAMX Zea mays” for “GALAP Galium aparine”

Cn1nc(C(F)(F)F)cc1Oc1cc(C#N)cc(-c2cc(C(F)(F)F)nn2C)n1 [Example 3, 4-Cyano-2-(1-methyl-3-trifluoromethylpyrazol-5-yloxy)-6-(1-methyl-3-trifluoromethylpyrazol-5-yl)pyridine] was tested. Which IPOHE herbicidal rating ([1]; 0.025 kg/ha) did it give?
The IPOHE herbicidal rating was 2 (2 - Slight effect).

What about the IPOHE herbicidal rating ([1]; 0.100 kg/ha) of the same molecule?
Its IPOHE herbicidal rating is 2 (2 - Slight effect).

What about the IPOHE herbicidal rating ([1]; 0.400 kg/ha) of the same molecule?
The IPOHE herbicidal rating was 9 (9 - Complete kill).

What about the MATIN herbicidal rating ([2]; 0.025 kg/ha) of the same molecule?
The MATIN herbicidal rating was 9 (9 - Complete kill).

What about the MATIN herbicidal rating ([2]; 0.100 kg/ha) of the same molecule?
The MATIN herbicidal rating was 9 (9 - Complete kill).

And the MATIN herbicidal rating ([2]; 0.400 kg/ha)?
The MATIN herbicidal rating was 9 (9 - Complete kill).

And the SETVI herbicidal rating ([3]; 0.025 kg/ha)?
The SETVI herbicidal rating was 3 (3 - Moderate effect).

And the SETVI herbicidal rating ([3]; 0.100 kg/ha)?
The SETVI herbicidal rating was 5 (5 - Definite injury).

What about the SETVI herbicidal rating ([3]; 0.400 kg/ha) of the same molecule?
The SETVI herbicidal rating was 8 (8 - Approaching complete kill).

And the GLXMA herbicidal rating ([4]; 0.025 kg/ha)?
The GLXMA herbicidal rating was 0 (0 - No effect).

And the GLXMA herbicidal rating ([4]; 0.100 kg/ha)?
Its GLXMA herbicidal rating is 1 (1 - Trace effect).

And the GLXMA herbicidal rating ([4]; 0.400 kg/ha)?
Its GLXMA herbicidal rating is 3 (3 - Moderate effect).

And the HORVW herbicidal rating ([5]; 0.025 kg/ha)?
The HORVW herbicidal rating was 2 (2 - Slight effect).

And the HORVW herbicidal rating ([5]; 0.100 kg/ha)?
The HORVW herbicidal rating was 3 (3 - Moderate effect).

What about the HORVW herbicidal rating ([5]; 0.400 kg/ha) of the same molecule?
Its HORVW herbicidal rating is 5 (5 - Definite injury).

What about the GALAP herbicidal rating ([6]; 0.1 kg/ha) of the same molecule?
Its GALAP herbicidal rating is 3 (3 - Moderate effect).

What about the GALAP herbicidal rating ([6]; 0.4 kg/ha) of the same molecule?
Its GALAP herbicidal rating is 9 (9 - Complete kill).

And the HORVW herbicidal rating ([7]; 0.1 kg/ha)?
The HORVW herbicidal rating was 3 (3 - Moderate effect).

And the HORVW herbicidal rating ([7]; 0.4 kg/ha)?
Its HORVW herbicidal rating is 5 (5 - Definite injury).

And the ZEAMX herbicidal rating ([8]; 0.1 kg/ha)?
The ZEAMX herbicidal rating was 2 (2 - Slight effect).

And the ZEAMX herbicidal rating ([8]; 0.4 kg/ha)?
Its ZEAMX herbicidal rating is 4 (4 - Injury).

Which IPOHE herbicidal rating ([1]; 0.025 kg/ha) does the source give for Cc1cc(Oc2cccc(C(F)(F)F)c2)nc(-c2cc(C(F)(F)F)nn2C)c1 [Example 63] here?
The IPOHE herbicidal rating was 0 (0 - No effect).

What about the IPOHE herbicidal rating ([1]; 0.100 kg/ha) of the same molecule?
Its IPOHE herbicidal rating is 0 (0 - No effect).

And the IPOHE herbicidal rating ([1]; 0.400 kg/ha)?
The IPOHE herbicidal rating was 3 (3 - Moderate effect).

And the MATIN herbicidal rating ([2]; 0.100 kg/ha)?
The MATIN herbicidal rating was 6 (6 - Herbicidal effect).

And the MATIN herbicidal rating ([2]; 0.400 kg/ha)?
Its MATIN herbicidal rating is 9 (9 - Complete kill).

And the SETVI herbicidal rating ([3]; 0.025 kg/ha)?
The SETVI herbicidal rating was 1 (1 - Trace effect).

What about the SETVI herbicidal rating ([3]; 0.100 kg/ha) of the same molecule?
The SETVI herbicidal rating was 5 (5 - Definite injury).

What about the SETVI herbicidal rating ([3]; 0.400 kg/ha) of the same molecule?
The SETVI herbicidal rating was 9 (9 - Complete kill).

And the GLXMA herbicidal rating ([4]; 0.025 kg/ha)?
The GLXMA herbicidal rating was 0 (0 - No effect).

And the GLXMA herbicidal rating ([4]; 0.100 kg/ha)?
The GLXMA herbicidal rating was 0 (0 - No effect).

And the GLXMA herbicidal rating ([4]; 0.400 kg/ha)?
The GLXMA herbicidal rating was 0 (0 - No effect).

What about the HORVW herbicidal rating ([5]; 0.025 kg/ha) of the same molecule?
Its HORVW herbicidal rating is 0 (0 - No effect).

What about the HORVW herbicidal rating ([5]; 0.100 kg/ha) of the same molecule?
Its HORVW herbicidal rating is 0 (0 - No effect).

What about the HORVW herbicidal rating ([5]; 0.400 kg/ha) of the same molecule?
The HORVW herbicidal rating was 2 (2 - Slight effect).

And the GALAP herbicidal rating ([6]; 0.1 kg/ha)?
Its GALAP herbicidal rating is 5 (5 - Definite injury).

And the GALAP herbicidal rating ([6]; 0.4 kg/ha)?
The GALAP herbicidal rating was 5 (5 - Definite injury).

What about the HORVW herbicidal rating ([7]; 0.1 kg/ha) of the same molecule?
The HORVW herbicidal rating was 3 (3 - Moderate effect).

What about the HORVW herbicidal rating ([7]; 0.4 kg/ha) of the same molecule?
Its HORVW herbicidal rating is 3 (3 - Moderate effect).

And the ZEAMX herbicidal rating ([8]; 0.1 kg/ha)?
The ZEAMX herbicidal rating was 2 (2 - Slight effect).

And the ZEAMX herbicidal rating ([8]; 0.4 kg/ha)?
The ZEAMX herbicidal rating was 3 (3 - Moderate effect).

Which IPOHE herbicidal rating ([1]; 0.025 kg/ha) does the source give for Cc1cnc(-c2cc(C(F)(F)F)nn2C)nc1Oc1cc(C(F)(F)F)nn1C [Example 4, 2-(1-Methyl-3-trifluoromethylpyrazol-5-yl)-6-(1-methyl-3-trifluoromethylpyrazol-5-yloxy)-5-methylpyrimidine] here?
The IPOHE herbicidal rating was 4 (4 - Injury).

And the IPOHE herbicidal rating ([1]; 0.100 kg/ha)?
The IPOHE herbicidal rating was 6 (6 - Herbicidal effect).

And the IPOHE herbicidal rating ([1]; 0.400 kg/ha)?
The IPOHE herbicidal rating was 9 (9 - Complete kill).

And the MATIN herbicidal rating ([2]; 0.025 kg/ha)?
The MATIN herbicidal rating was 8 (8 - Approaching complete kill).

And the MATIN herbicidal rating ([2]; 0.100 kg/ha)?
The MATIN herbicidal rating was 8 (8 - Approaching complete kill).

What about the MATIN herbicidal rating ([2]; 0.400 kg/ha) of the same molecule?
The MATIN herbicidal rating was 9 (9 - Complete kill).

And the SETVI herbicidal rating ([3]; 0.025 kg/ha)?
Its SETVI herbicidal rating is 8 (8 - Approaching complete kill).

And the SETVI herbicidal rating ([3]; 0.100 kg/ha)?
The SETVI herbicidal rating was 9 (9 - Complete kill).

What about the SETVI herbicidal rating ([3]; 0.400 kg/ha) of the same molecule?
Its SETVI herbicidal rating is 9 (9 - Complete kill).

And the GLXMA herbicidal rating ([4]; 0.025 kg/ha)?
Its GLXMA herbicidal rating is 2 (2 - Slight effect).

And the GLXMA herbicidal rating ([4]; 0.100 kg/ha)?
The GLXMA herbicidal rating was 3 (3 - Moderate effect).

What about the GLXMA herbicidal rating ([4]; 0.400 kg/ha) of the same molecule?
Its GLXMA herbicidal rating is 4 (4 - Injury).

What about the HORVW herbicidal rating ([5]; 0.025 kg/ha) of the same molecule?
Its HORVW herbicidal rating is 2 (2 - Slight effect).

What about the HORVW herbicidal rating ([5]; 0.100 kg/ha) of the same molecule?
Its HORVW herbicidal rating is 4 (4 - Injury).

What about the HORVW herbicidal rating ([5]; 0.400 kg/ha) of the same molecule?
The HORVW herbicidal rating was 5 (5 - Definite injury).

What about the GALAP herbicidal rating ([6]; 0.1 kg/ha) of the same molecule?
The GALAP herbicidal rating was 8 (8 - Approaching complete kill).

What about the GALAP herbicidal rating ([6]; 0.4 kg/ha) of the same molecule?
The GALAP herbicidal rating was 9 (9 - Complete kill).

And the HORVW herbicidal rating ([7]; 0.1 kg/ha)?
The HORVW herbicidal rating was 3 (3 - Moderate effect).

And the HORVW herbicidal rating ([7]; 0.4 kg/ha)?
Its HORVW herbicidal rating is 5 (5 - Definite injury).

What about the ZEAMX herbicidal rating ([8]; 0.1 kg/ha) of the same molecule?
The ZEAMX herbicidal rating was 2 (2 - Slight effect).

What about the ZEAMX herbicidal rating ([8]; 0.4 kg/ha) of the same molecule?
Its ZEAMX herbicidal rating is 4 (4 - Injury).
